Assay: Double amide coupling of bis-quinoline diacid with diamine (bis-indole diamine 5, or 1,5-pentanediamine for the precursor of 17); TCFH (4 equiv), N-methylimidazole (8 equiv); diamine (ca. 1.1-1.2 equiv, 6 mM in DMF) added at 20 uL/min to the activated diacid; intermolecular amide first, then intramolecular amide closure
Settings: the molecule shown is the open-chain precursor, 2.0 mM

CC(C)(C)OC(=O)N(CC(=O)Nc1ccc2ncc(C(=O)O)cc2c1)CC(=O)Nc1ccc2ncc(C(=O)Nc3ccc4[nH]cc(Cc5c[nH]c6ccc(N)cc56)c4c3)cc2c1 [13a1 (from 12a1 + 5)]
ring closure, isolated yield (30-membered ring): 23%

Nc1ccc2[nH]cc(Cc3c[nH]c4ccc(NC(=O)c5cnc6ccc(NC(=O)CCCCC(=O)Nc7ccc8ncc(C(=O)O)cc8c7)cc6c5)cc34)c2c1 [13a2 (from 12a2 + 5)]
ring closure, isolated yield (31-membered ring): 21%

Nc1ccc2[nH]cc(Cc3c[nH]c4ccc(NC(=O)c5cnc6ccc(NC(=O)CCCCCC(=O)Nc7ccc8ncc(C(=O)O)cc8c7)cc6c5)cc34)c2c1 [13a3 (from 12a3 + 5)]
ring closure, isolated yield (32-membered ring): 20%

Nc1ccc2[nH]cc(Cc3c[nH]c4ccc(NC(=O)c5cnc6ccc(NC(=O)CCCCCCC(=O)Nc7ccc8ncc(C(=O)O)cc8c7)cc6c5)cc34)c2c1 [13a4 (from 12a4 + 5)]
ring closure, isolated yield (33-membered ring): 21%

CC(C)(C)OC(=O)N(CCC(=O)Nc1ccc2cc(C(=O)O)cnc2c1)CCC(=O)Nc1ccc2cc(C(=O)Nc3ccc4[nH]cc(Cc5c[nH]c6ccc(N)cc56)c4c3)cnc2c1 [13b1 (from 12b1 + 5)]
ring closure, isolated yield (34-membered ring): 21%

Nc1ccc2[nH]cc(Cc3c[nH]c4ccc(NC(=O)c5cnc6cc(NC(=O)CCCCC(=O)Nc7ccc8cc(C(=O)O)cnc8c7)ccc6c5)cc34)c2c1 [13b2 (from 12b2 + 5)]
ring closure, isolated yield (33-membered ring): 21%

Nc1ccc2[nH]cc(Cc3c[nH]c4ccc(NC(=O)c5cnc6cc(NC(=O)CCCCCC(=O)Nc7ccc8cc(C(=O)O)cnc8c7)ccc6c5)cc34)c2c1 [13b3 (from 12b3 + 5)]
ring closure, isolated yield (34-membered ring): 20%

Nc1ccc2[nH]cc(Cc3c[nH]c4ccc(NC(=O)c5cnc6cc(NC(=O)CCCCCCC(=O)Nc7ccc8cc(C(=O)O)cnc8c7)ccc6c5)cc34)c2c1 [13b4 (from 12b4 + 5)]
ring closure, isolated yield (35-membered ring): 27%

Nc1ccc2[nH]cc(Cc3c[nH]c4ccc(NC(=O)c5cnc6cc(NC(=O)CCCCCCCC(=O)Nc7ccc8cc(C(=O)O)cnc8c7)ccc6c5)cc34)c2c1 [13b5 (from 12b5 + 5)]
ring closure, isolated yield (36-membered ring): 23%

NCCCCCNC(=O)c1cnc2ccc(NC(=O)CCCCC(=O)Nc3ccc4ncc(C(=O)O)cc4c3)cc2c1 [precursor of 17 (from 12a2 + 1,5-pentanediamine)]
ring closure, isolated yield (27-membered ring): 15%

— PMC8162405
